In the NIST ThermoML archive (doi:10.1016/j.fluid.2006.05.014):

Assay: xn = mol fraction of the nth substance listed
Conditions: Liquid, dividing mass by volume

CCCCCCCC [octane] + O=C=O
Conditions | mass density [kg/m3]
313.2 K, x2 = 0.11 | 730
313.2 K, x2 = 0.2134 | 729
313.2 K, x2 = 0.3377 | 729.3
313.2 K, x2 = 0.4342 | 711.9
313.2 K, x2 = 0.5534 | 692.7
313.2 K, x2 = 0.6752 | 663.5
313.2 K, x2 = 0.752 | 644.6
313.2 K, x2 = 0.8581 | 585
313.2 K, x2 = 0.9447 | 462.3
333.2 K, x2 = 0.1573 | 683.6
333.2 K, x2 = 0.206 | 678.5
333.2 K, x2 = 0.2891 | 670.1
333.2 K, x2 = 0.3593 | 660.5
333.2 K, x2 = 0.4296 | 657.3
333.2 K, x2 = 0.4956 | 641.9
333.2 K, x2 = 0.5915 | 627.8
333.2 K, x2 = 0.7413 | 556.8
333.2 K, x2 = 0.8558 | 516.5
333.2 K, x2 = 0.9383 | 436.1
353.2 K, x2 = 0.1452 | 658.6
353.2 K, x2 = 0.2452 | 651.5
353.2 K, x2 = 0.3596 | 642.5
353.2 K, x2 = 0.4373 | 635.4
353.2 K, x2 = 0.4948 | 621.3
353.2 K, x2 = 0.5783 | 614.8
353.2 K, x2 = 0.6237 | 600.1
353.2 K, x2 = 0.7761 | 585.8
353.2 K, x2 = 0.8255 | 560
353.2 K, x2 = 0.9154 | 458.2
373.2 K, x2 = 0.2172 | 550.7
373.2 K, x2 = 0.369 | 565.2
373.2 K, x2 = 0.5134 | 584.2
373.2 K, x2 = 0.5706 | 592.6
373.2 K, x2 = 0.6538 | 591.7
373.2 K, x2 = 0.7837 | 565.8
373.2 K, x2 = 0.8522 | 516.3
373.2 K, x2 = 0.902 | 425.1
393.2 K, x2 = 0.156 | 510.3
393.2 K, x2 = 0.2689 | 525.1
393.2 K, x2 = 0.3933 | 531.4
393.2 K, x2 = 0.4582 | 537.8
393.2 K, x2 = 0.522 | 544.7
393.2 K, x2 = 0.5922 | 546.8
393.2 K, x2 = 0.6738 | 551.1
393.2 K, x2 = 0.7464 | 553.2
393.2 K, x2 = 0.8146 | 519.8
393.2 K, x2 = 0.8728 | 400.2
